{"source": "patent US20180320186A1", "about": "“METHOD FOR SITE-SPECIFIC INSERTION OF FOREIGN DNA INTO A GENOME IN AN ANIMAL CELL AND A CELL OBTAINED USING SAME” (INTER-UNIVERSITY RESEARCH INSTITUTE CORPORATION RESEARCH …, priority 2015, published 2018)", "assay_type_in_all_cases": "cell-based, human", "key": {"[1]": {"test_system": "RAD21-mAID-Clover fusion protein", "assay": "Deconvolution fluorescence microscopy of living cells expressing RAD21-mAID-Clover after auxin treatment", "settings": "500 μM auxin, observed after 90 minutes, HCT116 with or without OsTIR1", "experimental": "(§1) In this experiment, wild-type HCT116 cells and HCT 116 cells modified to constitutively express OsTIR1 necessary for an auxin-inducible degron (AID) method were used as materials. Proliferating cells were prepared in a 6-well plate. 0.8 μg of pX330 for cleaving the target portion of RAD21 gene and 0.6 μg of each of the constructed donor vectors having neomycin and hygromycin resistance markers were mixed and transfected into the cells using Fugene HD (available from Promega Corporation). For transfection, DNA and Fugene HD were mixed according to the instruction manual, allowed to stand for 15 minutes and then added dropwise to the medium.\nIn the cells before treatment with auxin (3-indole acetic acid), it was observed that RAD21-mAID-Clover was localized in the cell nucleus, regardless of expression of OsTIR1."}, "[2]": {"test_system": "RAD21-mAID-Clover fusion protein", "assay": "Western blotting of RAD21-mAID-Clover after auxin treatment (AID method)", "settings": "500 μM auxin for 20 hours, HCT116 with or without OsTIR1", "experimental": "as §1\nA protein was extracted from clones in which insertions into both alleles were confirmed by genomic PCR, and subjected to Western blotting using a RAD21 antibody and a mAID antibody (right in FIG. 6). […] The RAD21 to which mAID-Clover was not added was detected at 105 kDa. On the other hand, the RAD21-mAID-Clover fusion protein was detected at 145 kDa. As shown in the right side of FIG. 6, in the case where a RAD21 antibody was used, a 105 kDa band was detected in the original HCT116 cells (WT), whereas in the case where mAID-Clover was added to both alleles, a 145 kDa band was detected. In addition, in the case where a mAID antibody was used, only the RAD21 protein having mAID-Clover added thereto was detected."}, "[3]": {"test_system": "living cells in which a DHC1-mAID-Clover fusion protein is expressed", "assay": "Percentage of mitotic cells and fluorescence microscopy (tubulin antibody, SiR-Hoechst) of cells expressing DHC1-mAID-Clover", "settings": "500 μM auxin with 1 μg/mL tetracycline", "experimental": "FIG. 12 is a graph showing the percentage of mitotic cells at 18 and 42 hours after treatment, using living cells in which a DHC1-mAID-Clover fusion protein is expressed, untreated and treated with 1 μg/mL of tetracycline alone, or 1 μg/mL of tetracycline and 500 μM of auxin.\nThe percentage of mitotic cells at 18 and 42 hours after treatment was calculated, using living cells in which a DHC1-mAID-Clover fusion protein is expressed, untreated and treated with 1 μg/mL of tetracycline alone, or 1 μg/mL of tetracycline and 500 μM of auxin (FIG. 12).\nIn addition, fluorescence microscope observation was carried out after immunostaining with a tubulin antibody and nuclear staining with SiR-Hoechst at 18 hours after treatment for living cells in which a DHC1-mAID-Clover fusion protein is expressed, untreated and treated with 1 μg/mL of tetracycline and 500 μM of auxin (FIG. 13)."}, "[4]": {"test_system": "living cells in which a DHC1-mAID-Clover fusion protein is expressed", "assay": "Relative number of cells after treatment of cells expressing DHC1-mAID-Clover", "settings": "500 μM auxin with 2 μg/mL doxycycline; 24, 48 and 72 hours relative to zero hours", "experimental": "FIG. 11 is a graph showing the relative number of cells at 24, 48, and 72 hours after treatment with respect to the number of cells at zero hours after treatment, using living cells in which a DHC1-mAID-Clover fusion protein is expressed, untreated and treated with 2 μg/mL of doxycycline alone, or 2 μg/mL of doxycycline and 500 μM of auxin.\nThe relative number of cells at 24, 48, and 72 hours after treatment was calculated with respect to the number of cells at zero hours after treatment, using living cells in which a DHC1-mAID-Clover fusion protein is expressed, untreated and treated with 2 μg/mL of doxycycline alone, or 2 μg/mL of doxycycline and 500 μM of auxin (FIG. 11)."}, "[5]": {"test_system": "DHC1 protein having mAID-Clover added", "assay": "Western blotting with DHC1 antibody after doxycycline and auxin treatment", "settings": "500 μM auxin with 2 μg/mL doxycycline for 2, 4, 6, 8, 10 and 24 hours", "experimental": "as §1, with “DHC1” for “RAD21”\nA protein was extracted from clones in which insertions into both alleles were confirmed by genomic PCR, and subjected to Western blotting using a DHC1 antibody and an OsTIR antibody (right in FIG. 10). In addition, a protein was similarly extracted from the cells treated with 2 μg/mL of doxycycline and 500 μM of auxin (3-indole acetic acid) for 2, 4, 6, 8, 10, and 24 hours, and used for Western blotting."}}}
{"smiles": "O=C(O)Cc1c[nH]c2ccccc12", "note": "[auxin, 3-indole acetic acid]", "values": [{"measurement": "Disappearance of RAD21-mAID-Clover from the nucleus (fluorescence microscope)", "setting": "[1]", "result": "RAD21-mAID-Clover disappeared only in cells expressing OsTIR1"}, {"measurement": "Degradation of RAD21-mAID-Clover (Western blotting)", "setting": "[2]", "result": "disappearance of RAD21-mAID-Clover occurred in OsTIR1-expressing cells"}, {"measurement": "Percentage of mitotic cells", "setting": "[3]; 18 and 42 hours after treatment", "result": "accumulation of mitotic cells"}, {"measurement": "Chromosomal structure (fluorescence microscopy)", "setting": "[3]; 18 hours after treatment", "result": "a chromosomal structural abnormality occurred"}, {"measurement": "Relative number of cells (cell proliferation)", "setting": "[4]", "result": "cell proliferation was suppressed after 48 hours from the treatment"}, {"measurement": "DHC1-mAID-Clover protein level (DHC1 antibody)", "setting": "[5]", "result": "disappeared with time"}]}
